According to ChEMBL document CHEMBL6092222 (J Med Chem, 2024):
Converted amounts (≈) assume the structure as drawn.

Columns and labels:
[1] = Prodrug conversion in Sprague-Dawley rat assessed as Cmax of 6-(cyclopropanecarboxamido)-4-((2-methoxy-3-(2-methyl-2H-tetrazol-5-yl)phenyl)amino)-N-(methyl-d3)nicotinamide metabolite at 5 mg/kg, po measured for 24 hrs by UPLC-MS/MS analysis; type: ADME, organism-based; conditions: in vivo
[2] = Prodrug conversion in Sprague-Dawley rat assessed as Tmax of 6-(cyclopropanecarboxamido)-4-((2-methoxy-3-(2-methyl-2H-tetrazol-5-yl)phenyl)amino)-N-(methyl-d3)nicotinamide metabolite at 150 mg/kg, po measured for 24 hrs by UPLC-MS/MS analysis; type: ADME, organism-based; conditions: in vivo
[3] = Prodrug conversion in Famotidine-pretreated Sprague-Dawley rat assessed as Tmax of 6-(cyclopropanecarboxamido)-4-((2-methoxy-3-(2-methyl-2H-tetrazol-5-yl)phenyl)amino)-N-(methyl-d3)nicotinamide metabolite at 10 mg/kg, po measured for 24 hrs by UPLC-MS/MS analysis; type: ADME, organism-based; conditions: in vivo
[4] = Chemical stability of compound in 0.1 M HCl at pH 1 at 37 degreeC assessed as half life measured for 24 hrs by reversed phase-HPLC analysis; type: physicochemical
[5] = Cmax in Sprague-Dawley rat at 5 mg/kg, po measured for 24 hrs by UPLC-MS/MS analysis; type: ADME, organism-based; conditions: in vivo
[6] = Chemical stability of compound in acetate buffer at pH 4 at 37 degreeC assessed as half life measured for 24 hrs by reversed phase-HPLC analysis; type: physicochemical
[7] = AUC in Sprague-Dawley rat at 25 mg/kg, po measured for 24 hrs by UPLC-MS/MS analysis; type: ADME, organism-based; conditions: in vivo
[8] = Prodrug conversion in Famotidine-pretreated Sprague-Dawley rat assessed as AUC (total) of 6-(cyclopropanecarboxamido)-4-((2-methoxy-3-(2-methyl-2H-tetrazol-5-yl)phenyl)amino)-N-(methyl-d3)nicotinamide metabolite at 10 mg/kg, po measured for 24 hrs by UPLC-MS/MS analysis; type: ADME, organism-based; conditions: in vivo
[9] = Solubility of compound in FaSSIF at pH 6.5 by reversed-phase UPLC analysis; type: physicochemical
[10] = target: Intestinal-type alkaline phosphatase 1 (Rattus norvegicus, UniProt P15693); experiment: (§1) Prodrug conversion in tris buffer at pH 7.4 assessed as intestinal recombinant rat ALP-mediated 6-(cyclopropanecarboxamido)-4-((2-methoxy-3-(2-methyl-2H-tetrazol-5-yl)phenyl)amino)-N-(methyl-d3)nicotinamide metabolite formation by measuring half life of metabolite at 1 uM incubated for 30 mins by UPLC-MS/MS analysis; type: ADME; conditions: pH 7.4, 0.5 h
Sequence of Intestinal-type alkaline phosphatase 1 (P15693 whole entry): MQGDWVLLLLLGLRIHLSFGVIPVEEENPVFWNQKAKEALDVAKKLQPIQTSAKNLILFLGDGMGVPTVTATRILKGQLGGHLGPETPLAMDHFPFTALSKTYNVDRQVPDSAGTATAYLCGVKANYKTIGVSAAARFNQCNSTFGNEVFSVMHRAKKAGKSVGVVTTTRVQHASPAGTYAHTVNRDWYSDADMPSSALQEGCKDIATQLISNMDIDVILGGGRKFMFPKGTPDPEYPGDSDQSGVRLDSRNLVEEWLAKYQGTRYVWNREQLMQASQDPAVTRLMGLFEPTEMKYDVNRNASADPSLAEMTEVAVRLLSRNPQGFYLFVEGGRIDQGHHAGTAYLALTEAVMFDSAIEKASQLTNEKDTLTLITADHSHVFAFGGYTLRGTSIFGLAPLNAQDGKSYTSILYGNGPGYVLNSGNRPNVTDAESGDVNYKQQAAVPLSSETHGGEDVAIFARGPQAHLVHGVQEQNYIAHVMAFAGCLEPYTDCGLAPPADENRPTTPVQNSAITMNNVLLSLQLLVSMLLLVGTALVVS

[11] = Prodrug conversion in Famotidine-pretreated Sprague-Dawley rat assessed as Cmax of 6-(cyclopropanecarboxamido)-4-((2-methoxy-3-(2-methyl-2H-tetrazol-5-yl)phenyl)amino)-N-(methyl-d3)nicotinamide metabolite at 10 mg/kg, po measured for 24 hrs by UPLC-MS/MS analysis; type: ADME, organism-based; conditions: in vivo
[12] = Prodrug conversion in Sprague-Dawley rat assessed as AUC of 6-(cyclopropanecarboxamido)-4-((2-methoxy-3-(2-methyl-2H-tetrazol-5-yl)phenyl)amino)-N-(methyl-d3)nicotinamide metabolite at 150 mg/kg, po measured for 24 hrs by UPLC-MS/MS analysis; type: ADME, organism-based; conditions: in vivo
[13] = Tmax in Sprague-Dawley rat at 5 mg/kg, po measured for 24 hrs by UPLC-MS/MS analysis; type: ADME, organism-based; conditions: in vivo
[14] = Chemical stability of compound in phosphate buffer at pH 6.5 at 37 degreeC assessed as half life measured for 24 hrs by reversed phase-HPLC analysis; type: physicochemical
[15] = physchem; conditions: aqueous buffer, pH 6.5
Description: Solubility of compound in aqueous buffer at pH 6.5 at 25 degreeC by reversed phase-HPLC analysis

[16] = physchem; conditions: aqueous buffer, pH 4
Description: Solubility of compound in aqueous buffer at pH 4 at 25 degreeC by reversed phase-HPLC analysis

[17] = Prodrug conversion in Sprague-Dawley rat assessed as AUC of 6-(cyclopropanecarboxamido)-4-((2-methoxy-3-(2-methyl-2H-tetrazol-5-yl)phenyl)amino)-N-(methyl-d3)nicotinamide metabolite at 5 mg/kg, po measured for 24 hrs by UPLC-MS/MS analysis; type: ADME, organism-based; conditions: in vivo
[18] = Prodrug conversion in Pentagastrine-pretreated Sprague-Dawley rat assessed as Tmax of 6-(cyclopropanecarboxamido)-4-((2-methoxy-3-(2-methyl-2H-tetrazol-5-yl)phenyl)amino)-N-(methyl-d3)nicotinamide metabolite at 10 mg/kg, po measured for 24 hrs by UPLC-MS/MS analysis; type: ADME, organism-based; conditions: in vivo
[19] = Cmax in Sprague-Dawley rat at 25 mg/kg, po measured for 24 hrs by UPLC-MS/MS analysis; type: ADME, organism-based; conditions: in vivo
[20] = Prodrug conversion in Pentagastrine-pretreated Sprague-Dawley rat assessed as Cmax of 6-(cyclopropanecarboxamido)-4-((2-methoxy-3-(2-methyl-2H-tetrazol-5-yl)phenyl)amino)-N-(methyl-d3)nicotinamide metabolite at 10 mg/kg, po measured for 24 hrs by UPLC-MS/MS analysis; type: ADME, organism-based; conditions: in vivo
[21] = Tmax in Sprague-Dawley rat at 25 mg/kg, po measured for 24 hrs by UPLC-MS/MS analysis; type: ADME, organism-based; conditions: in vivo
[22] = physchem; conditions: aqueous buffer, pH 1
Description: Solubility of compound in aqueous buffer at pH 1 at 25 degreeC by reversed phase-HPLC analysis

[23] = Prodrug conversion in Sprague-Dawley rat assessed as AUC of 6-(cyclopropanecarboxamido)-4-((2-methoxy-3-(2-methyl-2H-tetrazol-5-yl)phenyl)amino)-N-(methyl-d3)nicotinamide metabolite at 25 mg/kg, po measured for 24 hrs by UPLC-MS/MS analysis; type: ADME, organism-based; conditions: in vivo
[24] = target: Intestinal-type alkaline phosphatase (Homo sapiens, UniProt P09923); experiment: as §1, with “human” for “rat”; type: ADME; conditions: pH 7.4, 0.5 h
Sequence of Intestinal-type alkaline phosphatase (P09923 whole entry): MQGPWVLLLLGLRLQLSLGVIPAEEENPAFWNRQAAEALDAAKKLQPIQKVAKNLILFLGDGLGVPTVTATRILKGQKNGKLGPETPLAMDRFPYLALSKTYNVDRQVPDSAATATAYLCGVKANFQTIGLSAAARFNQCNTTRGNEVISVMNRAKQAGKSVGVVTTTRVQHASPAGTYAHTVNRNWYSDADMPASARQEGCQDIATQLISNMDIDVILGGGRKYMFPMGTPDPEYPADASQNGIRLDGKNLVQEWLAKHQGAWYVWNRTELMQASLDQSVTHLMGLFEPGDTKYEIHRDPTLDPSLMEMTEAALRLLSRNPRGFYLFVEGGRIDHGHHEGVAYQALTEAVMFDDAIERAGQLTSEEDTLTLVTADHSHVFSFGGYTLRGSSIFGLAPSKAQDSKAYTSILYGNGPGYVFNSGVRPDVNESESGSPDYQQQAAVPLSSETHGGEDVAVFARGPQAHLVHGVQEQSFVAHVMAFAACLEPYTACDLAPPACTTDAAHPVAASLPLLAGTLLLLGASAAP

[25] = Prodrug conversion in Sprague-Dawley rat assessed as Cmax of 6-(cyclopropanecarboxamido)-4-((2-methoxy-3-(2-methyl-2H-tetrazol-5-yl)phenyl)amino)-N-(methyl-d3)nicotinamide metabolite at 150 mg/kg, po measured for 24 hrs by UPLC-MS/MS analysis; type: ADME, organism-based; conditions: in vivo
[26] = Solubility of compound in FeSSIF at pH 5 by reversed-phase UPLC analysis; type: physicochemical
[27] = Prodrug conversion in Pentagastrine-pretreated Sprague-Dawley rat assessed as AUC (total) of 6-(cyclopropanecarboxamido)-4-((2-methoxy-3-(2-methyl-2H-tetrazol-5-yl)phenyl)amino)-N-(methyl-d3)nicotinamide metabolite at 10 mg/kg, po measured for 24 hrs by UPLC-MS/MS analysis; type: ADME, organism-based; conditions: in vivo
[28] = AUC in Sprague-Dawley rat at 5 mg/kg, po measured for 24 hrs by UPLC-MS/MS analysis; type: ADME, organism-based; conditions: in vivo
[29] = Prodrug conversion in Sprague-Dawley rat assessed as Cmax of 6-(cyclopropanecarboxamido)-4-((2-methoxy-3-(2-methyl-2H-tetrazol-5-yl)phenyl)amino)-N-(methyl-d3)nicotinamide metabolite at 25 mg/kg, po measured for 24 hrs by UPLC-MS/MS analysis; type: ADME, organism-based; conditions: in vivo
[30] = Prodrug conversion in Sprague-Dawley rat assessed as Tmax of 6-(cyclopropanecarboxamido)-4-((2-methoxy-3-(2-methyl-2H-tetrazol-5-yl)phenyl)amino)-N-(methyl-d3)nicotinamide metabolite at 25 mg/kg, po measured for 24 hrs by UPLC-MS/MS analysis; type: ADME, organism-based; conditions: in vivo
[31] = Prodrug conversion in Sprague-Dawley rat assessed as Tmax of 6-(cyclopropanecarboxamido)-4-((2-methoxy-3-(2-methyl-2H-tetrazol-5-yl)phenyl)amino)-N-(methyl-d3)nicotinamide metabolite at 5 mg/kg, po measured for 24 hrs by UPLC-MS/MS analysis; type: ADME, organism-based; conditions: in vivo

[2H]C([2H])([2H])NC(=O)c1cn(COP(=O)(O)O)/c(=N/C(=O)C2CC2)cc1Nc1cccc(-c2nnn(C)n2)c1OC
Cmax [1]: 4.91 µM | Tmax [2]: 3 h | Tmax [3]: 1.5 h | half-life [4]: > 20.8 days | Cmax [5]: Below_limit_of_detection | half-life [6]: 11.9 days | AUC [7]: Below_limit_of_detection | AUC [8]: 69 µM·h | solubility [9]: 1630 µg/mL (≈ 3040 µM) | t1/2 [10]: < 5 min | Cmax [11]: 12.4 µM | AUC [12]: 804.3 µM·h | Tmax [13]: Below_limit_of_detection | half-life [14]: 2.8 days | solubility [15]: 660 µg/mL (≈ 1230 µM) | solubility [16]: 27 µg/mL (≈ 50.4 µM) | AUC [17]: 19.2 µM·h | Tmax [18]: 1 h | Cmax [19]: Below_limit_of_detection | Cmax [20]: 11.4 µM | Tmax [21]: Below_limit_of_detection | solubility [22]: 16 µg/mL (≈ 29.9 µM) | AUC [23]: 96.9 µM·h | t1/2 [24]: < 5 min | Cmax [25]: 58.2 µM | solubility [26]: 100 µg/mL (≈ 187 µM) | AUC [27]: 63 µM·h | AUC [28]: Below_limit_of_detection | Cmax [29]: 13 µM | Tmax [30]: 3 h | Tmax [31]: 30 min
